Test results reported in US20160265061A1, “COMPOSITION FOR DIAGNOSING OVARIAN CANCER METASTASIS BY USING CPG METHYLATION IN GENE, AND USE THEREOF” (EWHA UNIVERSITY - INDUSTRY COLLABORATION FOUNDATION, priority 2013, published 2016).

Tested on: SK-OV-3 cell line
Experiment: 5-aza-2′-deoxycytidine treatment of SK-OV-3 cell line, gene expression changes by qRT-PCR
Assay type: cell-based, Human
[1] = primary cell line SK-OV-3 treated with 5, 10 and 20 μM for 3 days, qRT-PCR normalized to GAPDH

Q: Which results are given for `Nc1ncn([C@H]2C[C@H](O)[C@@H](CO)O2)c(=O)n1` [5-aza-2′-deoxycytidine]?
A: changes in expressions of the three genes (ADAM12, NTN4 and PTGS2) (cell line SK-OV-3, treatment for 3 days, FIGS. 12 to 14): increased; increase in ADAM12 gene expression (cell line SK-OV-3 treated with 5, 10 and 20 μM for 3 days, qRT-PCR normalized to GAPDH): about 2 fold; increase in NTN4 gene expression [1]: about 2 fold; increase in PTGS2 gene expression [1]: about 2 fold
